Measured values published in the SangsterLogP compilation.

Columns and labels:
[1] = method code SF-AS, from DOI: 10.1093/ajhp/38.9.1308, PMID: 7282713
[2] = method code SF, from DOI: 10.1246/bcsj.60.4357
[3] = method code SF-AS, from DOI: 10.1016/0378-5173(80)90117-9
[4] = method code SF-HPLC, from PMID: 3268116; conditions: pH 7.0
[5] = method code SF-HPLC, from DOI: 10.1248/bpb.16.154, PMID: 8364451
[6] = method code SF-ESR, from DOI: 10.1111/1523-1747.ep12319780, PMID: 2551971; conditions: pH 7.0
[7] = method code SF-GLC, from DOI: 10.1016/s0022-3565(25)30310-1, PMID: 1181405; conditions: pH 7.4
[8] = method code SF-HPLC, from DOI: 10.1016/s0021-9673(01)81976-2, PMID: 4066822
[9] = method code SF, from DOI: 10.1038/248065a0, PMID: 4150456; conditions: pH 9.0
[10] = method code SF-HPLC, from DOI: 10.1021/jm701549s, PMID: 18558667; conditions: pH 7.4
[11] = method code SF-CR, from DOI: 10.1042/bj1780443, PMID: 109087; conditions: pH 7.4
[12] = not given; remark: listed apart in the source
[13] = method code SF-AS, from DOI: 10.1016/0009-2797(77)90097-7, PMID: 407012; conditions: pH 7.0
[14] = method code SF-AS, from DOI: 10.1021/es00082a014; conditions: pH 7.0
[15] = method code SF-RC, from Audran, M.; Chanal, J.; Marignan, R.; Cousse, H. (1984). Correlations between structure and pharmacokinetic parameters in a series of cresotinamides. International Journal of Pharmaceutics, …; conditions: pH 1.0
[16] = not given; remark: listed apart in the source
[17] = not given; remark: listed apart in the source
[18] = method code SF-AS, from DOI: 10.1248/cpb.26.2824
[19] = method code SF, from DOI: 10.1080/09553009014551091, PMID: 1970998; conditions: pH 7.4
[20] = not given; remark: listed apart in the source
[21] = method code SF-HPLC, from DOI: 10.1021/jf0623440, PMID: 17263479
[22] = method code SF-AS, from DOI: 10.1248/cpb.36.1393; conditions: pH 7.4
[23] = not given; remark: listed apart in the source
[24] = method code SF-AS, from DOI: 10.1007/s0012800114, PMID: 10885996
[25] = method code SF-HPLC, from DOI: 10.1111/j.2042-7158.1995.tb05807.x, PMID: 7791035; conditions: pH 7.0
[26] = method code SF-AS, from DOI: 10.1271/bbb1961.46.2755
[27] = method code SF-RC, from DOI: 10.1038/sj.bjc.6601862, PMID: 15150578
[28] = method code SF-AS, from DOI: 10.1016/s0378-5173(98)00405-0, PMID: 10089287; conditions: pH 7.4
[29] = method code SF-HPLC, from DOI: 10.1021/je900271h
[30] = not given; remark: listed apart in the source
[31] = not given; remark: listed apart in the source
[32] = method code SF-GLC, from PMID: 6629728; conditions: pH 7.4
[33] = method code SF-GLC, from DOI: 10.1016/0378-4274(82)90116-3, PMID: 7090003
[34] = method code SF-AS, from DOI: 10.1016/j.ejmech.2004.01.002, PMID: 15072846; conditions: pH 7.4
[35] = method code SF, from DOI: 10.1002/jps.2600641111, PMID: 1195110; conditions: pH 7.4
[36] = method code SF-HPLC, from PMID: 11745753; conditions: pH 7.4
[37] = method code SF-RC, from DOI: 10.1016/0006-2952(75)90159-8, PMID: 1168477
[38] = method code SF-AS, from DOI: 10.1248/cpb.28.85; conditions: pH 2.0
[39] = method code SF-HPLC, from Hairsine, P. (1997). Direct measurement of partition coefficient by shake flask technique and gradient elution HPLC. Lab. Practice, 38(11)73-75.
[40] = method code SF-RC, from Lázníček, M., Waisser, K., Květina, J., Beňo, P., & Tichý, M. (1985). QSAR methods in pharmacokinetic analysis. QSAR in Toxicology and Xenobiochemistry, 249-256.; conditions: pH 1.0
[41] = method code SF-AS,RC, from DOI: 10.2307/3575891, PMID: 7122830
[42] = not given; remark: listed apart in the source
[43] = method code SF-HPLC, from DOI: 10.1002/ps.2780370106; conditions: pH 0.0
[44] = method code SF-AS, from DOI: 10.1148/radiology.194.3.7862981, PMID: 7862981
[45] = method code SF, from DOI: 10.1002/jbm.820150603, PMID: 7309762
[46] = method code SF-GLC, from DOI: 10.1039/an9709500763, PMID: 5449617
[47] = method code SF-HPLC, from DOI: 10.1002/ps.2780130506
[48] = method code SF-RC,FL, from DOI: 10.1016/0006-2952(81)90006-x, PMID: 6456004

NNc1nncc2ccccc12
logP [1]: 1

CC(C)c1cc([N+](=O)[O-])cc([N+](=O)[O-])c1O
logP [2]: 3.1

CCOc1ccc(O)cc1
logP [3]: 1.95

c1ccc2[nH]ccc2c1
logD [4]: 2.27

O=C(O)CNC(=O)c1cc(O)ccc1O
logP [5]: 0.28

CC1(C)CCC(C)(C)N1[O]
logD [6]: 1

CCCCCOC(=O)NC
logD [7]: 1.96

COC1=C(OC)C(=O)C=CC1=O
logP [8]: 0.34

CNC(=S)NCCSCc1c[nH]cn1
logD [9]: 0.16

CN(C)C(=O)c1ccc(Br)cc1
logD [10]: 1.83

COc1ccc([N+](=O)[O-])c(C)c1
logP: 2.38

CCc1ccc(O)cc1
logD [11]: 2.4

O=[N+]([O-])c1nccn1[C@@H]1O[C@H](CO)[C@@H](O)[C@H]1O
logP [12]: -1.15

CN(C)c1nc(N(C)C)nc(N(C)O)n1
logD [13]: 1.61

Cc1ccc(N)cc1C
logD [14]: 1.86

Cc1cccc(C(N)=O)c1O
logD [15]: 2.12

Cc1ncc(COP(=O)(O)O)c(C=O)c1O
logP [16]: 0.37

COP(=S)(OC)Oc1cc(Cl)c(Cl)cc1Cl
logP [17]: 4.67

Cc1ccc(O)c(C(=O)O)c1
logP [18]: 2.78

O=C(NCCO)C(F)(F)Cn1ccnc1[N+](=O)[O-]
logD [19]: -0.52

CCCCCCCBr
logP [20]: 4.44

O=[N+]([O-])/C=C1/NCCN1Cc1cnc(Cl)s1
logP [21]: 0.03

[O-][n+]1ccc(Cl)c2ccc(Cl)cc21
logD [22]: 1.85

O=NN(CCF)C(=O)NC1CCS(=O)(=O)CC1
logP [23]: -0.41

CS(=O)(=O)c1ccc(C=O)cc1
logP [24]: 0.35

NC(=O)NC(=O)Cc1ccccc1
logD [25]: 0.66

O=C1COC(=O)N1c1ccccc1
logP [26]: 0.93

O=C(Cn1ccnc1[N+](=O)[O-])NCCF
logP [27]: -0.8

Cc1cc(=O)n2ccccc2n1
logD [28]: 0.6

COc1cc(C(=O)O)ccc1O
logP [29]: 1.46

CC(C)OC(C)(C)C
logP [30]: 2.14

Cn1c(C(F)(F)F)nc2ccccc21
logP [31]: 3.98

C1CCC(C2CO2)CC1 (centres undefined)
logD [32]: 2.43

C=C(C)C(=O)OC(C)C
logP [33]: 2.25

NC(=O)N/N=C/C=C/c1ccc([N+](=O)[O-])o1
logD [34]: 0.97

CC(=O)OCCn1c([N+](=O)[O-])cnc1C
logD [35]: 0.3

COC(=O)c1ccc(N)cc1
logD [36]: 1.48

CCCN(C(C)=O)C(C)C
logP [37]: 1.48

O=C(O)COc1ccccc1
logD [38]: 1.35

COc1ccccc1C(=O)O
logP [39]: 1.62

O=C(O)CCc1ccccc1I
logD [40]: 2.47

COCC(O)Cn1cc(Br)nc1[N+](=O)[O-] (centres undefined)
logP [41]: 0.46

COC(=O)Nc1nc2ccccc2[nH]1
logP [42]: 1.75

NC(=O)Nc1ccc(C(=O)O)cc1
logD [43]: 0.73

O=[N+]([O-])c1nccn1C[C@H](O)[C@H](O)CF
logP [44]: -0.77

C=C(C)C(=O)OCCCC
logP [45]: 2.6

COP(=O)(OC)Oc1ccc([N+](=O)[O-])cc1
logP [46]: 1.33

CNC(=O)ON=Cc1ccc(Cl)c(Cl)c1
logP [47]: 2.89

NCCc1ccc(O)c(O)c1
logP [48]: -0.97
